Reference: US20210121426A1, “BLOOD PURIFICATION BY ALKALINIZING AGENT” (TOHOKU UNIVERSITY, priority 2017, published 2021)
Marks after values point to notes of the source that are not given here.

Columns and labels:
β2-microglobulin = assay: Human clinical trial: urinary β2-microglobulin (latex agglutination method); assay type: in vivo
Description: (§1) 1. […] Patients were assigned to each group so that age, sex, presence of diabetes, and eGFR were not biased. Each group was treated according to the “CKD medical care guide-summary of treatment” (hereinafter referred to as standard treatment).
(§2) An alkalinizing agent was not administered to the control group. […] A pH of early morning urine was controlled over time so that the dosage could be increased up to 6 tablets, 3 times a day (morning, noon, evening) as needed according to the discretion of the physician in cases where a pH of early morning urine was less than pH 6.5. To the group B, 3 tablets a day in which each tablet contained 500 mg of sodium bicarbonate were orally administered 3 times a day (morning, noon, evening) for 24 weeks. A pH of early morning urine was controlled over time so that the dosage could be increased up to 6 tablets, 3 times a day (morning, noon, evening) as needed according to the discretion of the physician in cases where a pH of early morning urine was less than pH 6.5.
(§3) Early morning urine and blood were collected before the start of administration, and 6 weeks, 12 weeks, and 24 weeks after the start of administration, and each specimen was stored at −80° C. Methods used in the present field for indoxyl sulfate, p-cresyl sulfate, phenylacetyl-L-glutamine, hippuric acid, and argininosuccinic acid in urine and blood (Sato, E., et. al., Metabolic alteration by indoxyl sulfate in skeletal muscle induce uremic sarcopenia in chronic kidney disease., Sci Rep. 2016 Nov. 10; 6:36618. doi: 10.1038/srep36618, and the like) were referred to, and quantitative analysis was performed using the following liquid chromatography triple quadrupole mass spectrometer (LC-MS/MS).
In addition, the amount of urinary β2-microglobulin was measured by latex agglutination method using the LZ test “Eiken” β2-M and LZ-β2-M standard U “Eiken” (Eiken Chemical Co., Tokyo, Japan). Furthermore, the amount of cystatin C in the serum was measured by a colloidal gold agglutination method using Nescoat GC Cystatin C (Nm) (Alfresa Pharma, Osaka, Japan).
(§4) For statistical analysis, the Mann-Whitney test was used for comparison between groups, and the Wilcoxon test was used for comparison of changes over time. The Pearson test was used for correlation.

argininosuccinic acid = assay: Human clinical trial in CKD patients: argininosuccinic acid in plasma and early morning urine (LC-MS/MS); assay type: in vivo; design: key to Influence on concentration of ASA / Influence on ASA U/P ratio: Excellent effects: ◯; Poor effects: X; No significant difference: —; (◯): whether or not there is an effect of promoting excretion of indoxyl sulfate into the urine cannot be determined
Description: as §1, §2, §3
For LC, NANOSPACE SI-2 (manufactured by Shiseido) was used, and […] MGM was selected as the analytical column.
For MS, TSQ Quantiva (manufactured by Thermo Fisher Scientific Co., Ltd.) was used, and five compounds were ionized in the negative mode and detected using the Selected Reaction Monitoring method. The quantitative value was calculated using a calibration curve prepared with a standard solution of each compound.
as §4
Then, the average value and SD of each group were calculated for (i) to (ix) above. For each of (iv) to (ix) above, the average value and SD of each group were calculated for all data of 6 weeks, 12 weeks, and 24 weeks after the start of administration in each group.

phenylacetyl-L-glutamine = assay: Urine phenylacetyl-L-glutamine (PAG) corrected by urinary specific gravity; assay type: in vivo, human
Source text: (§5) Medical Examination, Vol. 44, No. 1, 1995, pages 79-83 by Tetsuo Aoki et al. was referred to. A urinary specific gravity 1.022 was converted into a reference value.
(§6) Specific gravity correction value (unit/1.022·UG)=actual measurement value×(1.022−1.000)/(specific gravity value−1.000)

p-cresyl sulfate = assay: Urine p-cresyl sulfate (PCS) corrected by urinary specific gravity; assay type: in vivo, human
Source text: as §5, §6

[1] = 0 W, before the start of administration
[2] = 6-24 W, all data of 6, 12 and 24 weeks

O=C([O-])O.[Na+] [Bicarbonate, sodium bicarbonate]
Urine B2-microglobulin (β2-microglobulin; [1]): 99.0 ± 62.8 µg/L | Urine B2-microglobulin (β2-microglobulin; [2]): 206.2 ± 255.8^a μg/L | Urine B2-microglobulin, change from week 0 (β2-microglobulin; [2]): 148.3 ± 258.4 ^b ug/L | Urine B2-microglobulin (β2-microglobulin; 6 W): 216.3 ± 228.2^e μg/L | Urine B2-microglobulin, change from week 0 (β2-microglobulin; 6 W): 117.3 ± 220.7 µg/L | Urine B2-microglobulin (β2-microglobulin; 12 W): 264.5 ± 301.9 µg/L | Urine B2-microglobulin, change from week 0 (β2-microglobulin; 12 W): 165.5 ± 282.0^ ug/L | Urine B2-microglobulin (β2-microglobulin; 24 W): 261.0 ± 301.5^c,f μg/L | Urine B2-microglobulin, change from week 0 (β2-microglobulin; 24 W): 162.0 ± 281.8 ^c ug/L | kidney tubular damage (kidney proximal tubular damage) associated with progression of the stage (β2-microglobulin; from urinary β2-microglobulin): did not suppress | Arginino Succinic Acid-Urine/Plasma ratio (argininosuccinic acid; [1]): 3.82 ± 4.93 | Plasma Arginino Succinic Acid (argininosuccinic acid; [1]): 1178 ± 655 ng/mL | Urine Arginino Succinic Acid (early morning urine) (argininosuccinic acid; [1]): 2911 ± 1691 ng/mL | ASA - Urine/Plasma ratio, change from week 0 (argininosuccinic acid; [2]): 1.15 ± 7.87 | Arginino Succinic Acid-Urine/Plasma ratio (argininosuccinic acid; [2]): 4.97 ± 7.98 | Plasma Arginino Succinic Acid (argininosuccinic acid; [2]): 1327 ± 1416 ng/mL | Plasma Arginino Succinic Acid, change from week 0 (argininosuccinic acid; [2]): 148.9 ± 1134 ng/mL | Urine Arginino Succinic Acid (early morning urine) (argininosuccinic acid; [2]): 3071 ± 2386 ng/mL | Urine Arginino Succinic Acid, change from week 0 (argininosuccinic acid; [2]): 160.2 ± 1756 ng/mL | ASA - Urine/Plasma ratio, change from week 0 (argininosuccinic acid; 6 W): 1.93 ± 7.90 | Arginino Succinic Acid-Urine/Plasma ratio (argininosuccinic acid; 6 W): 5.75 ± 9.80 | Plasma Arginino Succinic Acid (argininosuccinic acid; 6 W): 1245 ± 748 ng/mL | Plasma Arginino Succinic Acid, change from week 0 (argininosuccinic acid; 6 W): 66.5 ± 565.5 ng/mL | Urine Arginino Succinic Acid (early morning urine) (argininosuccinic acid; 6 W): 3346 ± 2636 ng/mL | Urine Arginino Succinic Acid, change from week 0 (argininosuccinic acid; 6 W): 434.7 ± 1299 ng/mL | effect of excretion of argininosuccinic acid from blood into urine (argininosuccinic acid; 6 to 24 weeks, urine/plasma ratio): more strongly recognized | ASA - Urine/Plasma ratio, change from week 0 (argininosuccinic acid; 12 W): −1.01 ± 4.47 | Arginino Succinic Acid-Urine/Plasma ratio (argininosuccinic acid; 12 W): 2.81 ± 1.86 | Plasma Arginino Succinic Acid (argininosuccinic acid; 12 W): 1576 ± 2160 ng/mL | Plasma Arginino Succinic Acid, change from week 0 (argininosuccinic acid; 12 W): 397.7 ± 1733 ng/mL | Urine Arginino Succinic Acid (early morning urine) (argininosuccinic acid; 12 W): 2647 ± 2123 ng/mL | Urine Arginino Succinic Acid, change from week 0 (argininosuccinic acid; 12 W): -264.1 ± 1491 ng/mL | ASA - Urine/Plasma ratio, change from week 0 (argininosuccinic acid; 24 W): 2.54 ± 10.20^a | Arginino Succinic Acid-Urine/Plasma ratio (argininosuccinic acid; 24 W): 6.36 ± 9.60 | Plasma Arginino Succinic Acid (argininosuccinic acid; 24 W): 1160 ± 977 ng/mL | Plasma Arginino Succinic Acid, change from week 0 (argininosuccinic acid; 24 W): -17.6 ± 776.9 ng/mL | Urine Arginino Succinic Acid (early morning urine) (argininosuccinic acid; 24 W): 3221 ± 2466 ng/mL | Urine Arginino Succinic Acid, change from week 0 (argininosuccinic acid; 24 W): 309.9 ± 2335 ng/mL | Influence on concentration of ASA (argininosuccinic acid; Plasma, comparison with Cont): — | Influence on concentration of ASA (argininosuccinic acid; Plasma, comparison with reference drug): — | Influence on ASA U/P ratio (argininosuccinic acid; comparison with Cont): — | Influence on ASA U/P ratio (argininosuccinic acid; comparison with reference drug): — | Influence on concentration of ASA (argininosuccinic acid; Urine, comparison with Cont): — | Influence on concentration of ASA (argininosuccinic acid; Urine, comparison with reference drug): — | Urine PAG, specific gravity corrected (phenylacetyl-L-glutamine; 0 W): 203.6 ± 169.1 μg · mL^−1/1.022 · UG | Urine PAG, specific gravity corrected (phenylacetyl-L-glutamine; 6-24 W, all data): 162.0 ± 182.5 μg · mL^−1/1.022 · UG | Urine PAG, specific gravity corrected, % Relative value vs week 0 (phenylacetyl-L-glutamine; 6-24 W, all data): 87 ± 60% | Urine PAG, specific gravity corrected, difference vs week 0 (phenylacetyl-L-glutamine; 6-24 W, all data): −41.6 ± 126.8 μg · mL^−1/1.022 · UG | Urine PAG, specific gravity corrected (phenylacetyl-L-glutamine; 6 W): 202.9 ± 260.9 μg · mL^−1/1.022 · UG | Urine PAG, specific gravity corrected, % Relative value vs week 0 (phenylacetyl-L-glutamine; 6 W): 97 ± 71% | Urine PAG, specific gravity corrected, difference vs week 0 (phenylacetyl-L-glutamine; 6 W): −0.7 ± 162.0 μg · mL^−1/1.022 · UG | Urine PAG, specific gravity corrected, % Relative value vs week 0 (phenylacetyl-L-glutamine; 12 W): 76 ± 60% | Urine PAG, specific gravity corrected, difference vs week 0 (phenylacetyl-L-glutamine; 12 W): −67.6 ± 91.9 ^ μg · mL^−1/1.022 · UG | Urine PAG, specific gravity corrected (phenylacetyl-L-glutamine; 24 W): 147.1 ± 116.4 μg · mL^−1/1.022 · UG | Urine PAG, specific gravity corrected, % Relative value vs week 0 (phenylacetyl-L-glutamine; 24 W): 88 ± 49% | Urine PAG, specific gravity corrected, difference vs week 0 (phenylacetyl-L-glutamine; 24 W): −56.5 ± 113.7 μg · mL^−1/1.022 · UG | Urine PCS, specific gravity corrected (p-cresyl sulfate; 0 W): 113.0 ± 119.5 μg · mL^−1/1.022 · UG | Urine PCS, specific gravity corrected (p-cresyl sulfate; 6-24 W, all data): 83.2 ± 93.2 μg · mL^−1/1.022 · UG | Urine PCS, specific gravity corrected, % Relative value vs week 0 (p-cresyl sulfate; 6-24 W, all data): 151 ± 323^b,e % | Urine PCS, specific gravity corrected, difference vs week 0 (p-cresyl sulfate; 6-24 W, all data): −29.8 ± 66.1^b,d μg · mL^−1/1.022 · UG | Urine PCS, specific gravity corrected (p-cresyl sulfate; 6 W): 98.1 ± 118.3 μg · mL^−1/1.022 · UG | Urine PCS, specific gravity corrected, % Relative value vs week 0 (p-cresyl sulfate; 6 W): 83 ± 34^d,g % | Urine PCS, specific gravity corrected (p-cresyl sulfate; 12 W): 66.7 ± 73.0 μg · mL^−1/1.022 · UG | Urine PCS, specific gravity corrected, % Relative value vs week 0 (p-cresyl sulfate; 12 W): 105 ± 112% | Urine PCS, specific gravity corrected, difference vs week 0 (p-cresyl sulfate; 12 W): −46.3 ± 68.4^d,g μg · mL^−1/1.022 · UG | Urine PCS, specific gravity corrected (p-cresyl sulfate; 24 W): 84.8 ± 86.0 μg · mL^−1/1.022 · UG | Urine PCS, specific gravity corrected, % Relative value vs week 0 (p-cresyl sulfate; 24 W): 265 ± 540% | Urine PCS, specific gravity corrected, difference vs week 0 (p-cresyl sulfate; 24 W): −28.3 ± 84.4^ μg · mL^−1/1.022 · UG
